Drawing on patent publication US20160159814A1, “GLYCINE TRANSPORTER INHIBITOR” (TAISHO PHARMACEUTICAL CO., LTD., priority 2013, published 2016), this text covers IC50 for 30 compounds.

A word on the pIC50: it is the negative decadic logarithm of the IC50, by convention in mol/L.

pIC50: −log10 of the molar value. Like-named read-outs stand apart in the source and are kept apart here.

The experiment deals with T1, human type 1 glycine transporter (GlyT1) (Homo sapiens, UniProt P48067).
T1 construct: T98G cells (glioma cells) expressing human type 1 glycine transporter (GlyT1) were used; endogenous in cells; host or cells: T98G cells (human glioma cells)
T1 sequence (P48067 1-706): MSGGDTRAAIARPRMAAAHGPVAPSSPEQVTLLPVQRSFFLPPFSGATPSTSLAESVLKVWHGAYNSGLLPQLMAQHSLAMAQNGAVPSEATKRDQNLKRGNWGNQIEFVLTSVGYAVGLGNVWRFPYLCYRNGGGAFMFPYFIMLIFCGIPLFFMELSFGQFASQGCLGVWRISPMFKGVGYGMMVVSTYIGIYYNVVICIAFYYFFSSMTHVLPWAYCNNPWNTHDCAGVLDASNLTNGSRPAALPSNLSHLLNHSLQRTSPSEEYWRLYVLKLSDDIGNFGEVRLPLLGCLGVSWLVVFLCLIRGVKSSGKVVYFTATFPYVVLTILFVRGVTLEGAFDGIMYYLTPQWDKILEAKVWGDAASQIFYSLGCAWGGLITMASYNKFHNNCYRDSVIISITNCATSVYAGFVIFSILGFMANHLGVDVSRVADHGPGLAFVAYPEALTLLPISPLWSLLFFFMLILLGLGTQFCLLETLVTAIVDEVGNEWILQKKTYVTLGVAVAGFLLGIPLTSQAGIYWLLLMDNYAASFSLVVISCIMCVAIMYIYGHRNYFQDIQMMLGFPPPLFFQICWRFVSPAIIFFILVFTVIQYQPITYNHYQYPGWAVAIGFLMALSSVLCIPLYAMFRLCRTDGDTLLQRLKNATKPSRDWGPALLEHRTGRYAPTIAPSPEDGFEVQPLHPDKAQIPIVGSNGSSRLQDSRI
Description: Glycine uptake inhibition experiment ([3H] glycine uptake in T98G cells expressing GlyT1). The format is cell-based. Summed up: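 T98G glioma cells expressing human GlyT1 were pretreated 10 min with compound in HEPES buffer pH 7.4 (0.2% BSA), then incubated with compound plus 250 nM final [3H]glycine for 15 min at room temperature. Intracellular radioactivity was counted after NaOH lysis; 10 μM ALX5407 defined non-specific uptake. IC50 came from 10^−9–10^−5 M curves.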

With `C[C@H](O)c1cccc2c1C(F)(F)C(=O)N2Cc1cnc(Cl)nc1` [Compound 214, 1-[(2-chloropyrimidin-5-yl)methyl]-3,3-difluoro-4-[(1S)-1-hydroxyethyl]-1,3-dihydro-2H-indol-2-one], the pIC50 was 6.85.
Take `O=C1N(Cc2cccc(Cl)n2)c2cccc(CO)c2C1(F)F` [Compound 16, 1-[(6-chloropyridin-2-yl)methyl]-3,3-difluoro-4-(hydroxymethyl)-1,3-dihydro-2H-indol-2-one]: under “glycine uptake inhibition”, the negative-log IC50 (pIC50) is 6.85.
`CC(c1cccc(Cl)n1)N1C(=O)C(F)(F)c2c([C@H](C)O)cccc21` (single isomer, unassigned) [Compound 52]: where the note is “glycine uptake inhibition”, the pIC50 is 6.48. This pIC50 lies 0.37 log units lower than the previous one.
Compound `O=C1N(Cc2nc3ccccc3[nH]c2=O)c2cccc([C@@H](O)C(F)(F)F)c2C1(F)F` [Compound 140, 3-({3,3-difluoro-2-oxo-4-[(1R)-2,2,2-trifluoro-1-hydroxyethyl]-2,3-dihydro-1H-indol-1-yl}methyl) quinoxalin-2(1H)-one] had a pIC50 (glycine uptake inhibition) of 7.48.
With `COc1ncc(CN2C(=O)C(F)(F)c3c([C@H](C)O)cccc32)cc1Cl` [Compound 222, 1-[(5-chloro-6-methoxypyridin-3-yl)methyl]-3,3-difluoro-4-[(1S)-1-hydroxyethyl)-1,3-dihydro-2H-indol-2-one], the pIC50 is 8.07.
On the same count and under the same terms, as for `C[C@H](O)c1cccc2c1C(F)(F)C(=O)N2Cc1cc(OC(F)F)ccn1` [Compound 245, 1-{[4-(difluoromethoxy)pyridin-2-yl]methyl}-3,3-difluoro-4-[(1S)-1-hydroxyethyl]-1,3-dihydro-2H-indol-2-one], the figure is 6.96; as for `CC(O)c1c(F)ccc2c1C(F)(F)C(=O)N2Cc1cncc(Cl)c1` (single isomer, unassigned) [Compound 181, 1-[(5-chloropyridin-3-yl)methyl]-3,3,5-trifluoro-4-(1-hydroxyethyl)-1,3-dihydro-2H-indol-2-one], 6.51.
Take `Cc1nc2ccccc2nc1CN1C(=O)C(F)(F)c2c([C@H](C)O)cccc21` [Compound 79, 3,3-difluoro-4-[(1S)-1-hydroxyethyl]-1-[(3-methylquinoxalin-2-yl)methyl]-1,3-dihydro-2H-indol-2-one]: the pIC50 (glycine uptake inhibition) is 7.51.
On the same count and under the same terms, as for `O=C1N(Cc2cccc(Cl)n2)c2cccc(C3(O)COC3)c2C1(F)F` [Compound 25, 1-[(6-chloropyridin-2-yl)methyl]-3,3-difluoro-4-(3-hydroxyoxetan-3-yl)-1,3-dihydro-2H-indol-2-one], the figure is 5.12.
As to `O=C1N(Cc2cc(C(F)(F)F)c(Cl)cn2)c2cccc(C(O)C(F)F)c2C1(F)F` (single isomer, unassigned) [Compound 268, 1-{[5-chloro-4-(trifluoromethyl)pyridin-2-yl]methyl)-4-(2,2-difluoro-1-hydroxyethyl)-3,3-difluoro-1,3-dihydro-2H-indol-2-one], the pIC50 (table section whose head prints (μm)) was 7.80.
`C[C@H](O)c1cccc2c1C(F)(F)C(=O)N2Cc1ccc(Cl)cn1` [Compound 103, 1-[(5-chloropyridin-2-yl)methyl]-3,3-difluoro-4-[(1S)-1-hydroxyethyl]-1,3-dihydro-2H-indol-2-one]: the pIC50 (glycine uptake inhibition) is 7.36.
Consider `CC(O)c1c(F)ccc2c1C(F)(F)C(=O)N2Cc1ccnc(C#N)c1` (single isomer, unassigned) [Compound 184, 4-{(3,3,5-trifluoro-4-(1-hydroxyethyl)-2-oxo-2,3-dihydro-1H-indol-1-yl]methyl}pyridine-2-carbonitrile], for which the pIC50 is 7.02.
Still for that read-out and setting: as for `O=C1N(Cc2ccc(F)c(Br)n2)c2cccc(C(O)C(F)F)c2C1(F)F` (single isomer, unassigned) [Compound 274, 1-[(6-bromo-5-fluoropyridin-2-yl)methyl]-4-(2,2-difluoro-1-hydroxyethyl)-3,3-difluoro-1,3-dihydro-2H-indol-2-one], the figure is 8.34; as for `COc1ccc(CN2C(=O)C(F)(F)c3c(C(O)C(F)F)cccc32)cn1` (single isomer, unassigned) [Compound 255, 4-(2,2-difluoro-1-hydroxyethyl)-3,3-difluoro-1-[(6-methoxypyridin-3-yl)methyl)-1,3-dihydro-2H-indol-2-one], 7.16.
`Cc1nc(CN2C(=O)C(F)(F)c3c([C@H](C)O)cccc32)oc1C` [Compound 91, 1-[(4,5-dimethyl-1,3-oxazol-2-yl)methyl]-3,3-difluoro-4-[(1S)-1-hydroxyethyl]-1,3-dihydro-2H-indol-2-one]: for the setting “glycine uptake inhibition”, the pIC50 is 6.89.
Turning to `C[C@H](O)c1cccc2c1C(F)(F)C(=O)N2Cc1cccc(C#N)n1` [Compound 177, 6-({3,3-difluoro-4-[(1S)-1-hydroxyethyl]-2-oxo-2,3-dihydro-1H-indol-1-yl}methyl)pyridine-2-carbonitrile], the pIC50 is 7.62.
`N#Cc1cc(CN2C(=O)C(F)(F)c3c(C(O)C(F)(F)F)cccc32)ccn1` (single isomer, unassigned) [Compound 20, 4-{[3,3-difluoro-2-oxo-4-(2,2,2-trifluoro-1-hydroxyethyl)-2,3-dihydro-1H-indol-1-yl]methyl}pyridine-2-carbonitrile] had a pIC50 (glycine uptake inhibition) of 5.54.
In the case of `O=C1N(Cc2cccc(Cl)n2)c2cccc(C(O)C(F)F)c2C1(F)F` (stereo not drawn) [Compound 10, 1-[(6-chloropyridin-2-yl)methyl]-4-(2,2-difluoro-1-hydroxyethyl)-3,3-difluoro-1,3-dihydro-2H-indol-2-one], under “glycine uptake inhibition”, the pIC50 was 7.57.
On the same count and under the same terms, as for `CC(O)c1cccc2c1C(F)(F)C(=O)N2Cc1ccnc(Cl)c1` (single isomer, unassigned) [Compound 33, 1-[(2-chloropyridin-4-yl)methyl]-3,3-difluoro-4-(1-hydroxyethyl)-1,3-dihydro-2H-indol-2-one], the figure is 7.74; as for `C[C@H](O)c1cccc2c1C(F)(F)C(=O)N2Cc1cc(Cl)ccn1` [Compound 65, 1-[(4-chloropyridin-2-yl)methyl]-3,3-difluoro-4-[(1S)-1-hydroxyethyl]-1,3-dihydro-2H-indol-2-one], 7.74.
Compound `[2H]C([2H])(c1cccc(Cl)n1)N1C(=O)C(F)(F)c2c([C@H](C)O)cccc21` [Compound 205, 1-[(6-chloropyridin-2-yl)(2H2)methyl]-3,3-difluoro-4-[(1S)-1-hydroxyethyl]-1,3-dihydro-2H-indol-2-one] showed a pIC50 of 8.25.
Same read-out and setting: as for `COc1nc(C(F)(F)F)ccc1CN1C(=O)C(F)(F)c2c([C@H](C)O)cccc21` [Compound 243, 3,3-difluoro-4-[(1S)-1-hydroxyethyl]-1-({2-methoxy-6-(trifluoromethyl)pyridin-3-yl]methyl}-1,3-dihydro-2H-indol-2-one], the figure is 7.24.
On to `C[C@H](O)c1cccc2c1C(F)(F)C(=O)N2Cc1nc2ccccc2s1` [Compound 73, 1-(1,3-benzothiazol-2-ylmethyl)-3,3-difluoro-4-[(1S)-1-hydroxyethyl]-1,3-dihydro-2H-indol-2-one], for which the pIC50 (glycine uptake inhibition) was 7.43.
As to `CC(O)c1cccc2c1C(F)(F)C(=O)N2Cc1ccnc(Cl)c1` (stereo not drawn) [Compound 27, 1-[(2-chloropyridin-4-yl)methyl]-3,3-difluoro-4-(1-hydroxyethyl)-1,3-dihydro-2H-indol-2-one], where the note is “glycine uptake inhibition”, the pIC50 was 7.64.
In turn, `O=C1N(Cc2cc(Cl)ccn2)c2cccc(C(O)C(F)F)c2C1(F)F` (single isomer, unassigned) [Compound 146, 1-[(4-chloropyridin-2-yl)methyl]-4-(2,2-difluoro-1-hydroxyethyl)-3,3-difluoro-1,3-dihydro-2H-indol-2-one] had a pIC50 (glycine uptake inhibition) of 7.21.
On the same count and under the same terms, with `C[C@H](O)c1cccc2c1C(F)(F)C(=O)N2Cc1nc2cc(F)ccc2o1` [Compound 92, 3,3-difluoro-1-[(5-fluoro-1,3-benzoxazol-2-yl)methyl]-4-[(1S)-1-hydroxyethyl]-1,3-dihydro-2H-indol-2-one] the figure was 7.16.
`CC(O)c1cccc2c1C(F)(F)C(=O)N2Cc1cncc(Cl)c1` (single isomer, unassigned) [Compound 7, 1-[(5-chloropyridin-3-yl)methyl]-3,3-difluoro-4-(1-hydroxyethyl)-1,3-dihydro-2H-indol-2-one] showed a pIC50 (glycine uptake inhibition) of 7.85.
Same read-out and setting: with `C[C@H](O)c1cccc2c1C(F)(F)C(=O)N2Cc1ccc(F)cn1` [Compound 114, 3,3-difluoro-1-[(5-fluoropyridin-2-yl)methyl]-4-[(1S)-1-hydroxyethyl]-1,3-dihydro-2H-indol-2-one] the figure was 7.21.
The same measure, in the same setting: with `C[C@H](O)c1cccc2c1C(F)(F)C(=O)N2Cc1cncc(C(F)(F)F)c1` [Compound 121] the figure was 7.41; with `C[C@H](O)c1cccc2c1C(F)(F)C(=O)N2Cc1cccc(C(F)(F)F)c1` [Compound 58, 3,3-difluoro-4-[(1S)-1-hydroxyethyl]-1-[3-(trifluoromethyl)benzyl]-1,3-dihydro-2H-indol-2-one], 8.18.
